Experimental findings from ChEMBL document CHEMBL1857833, “Screening and optimization of specific chemical series against human African Trypanosomiasis (HAT)” are described below.

Converted amounts (≈) assume the structure as drawn. Bounds are passed on as bounds.

The nature of one data set: in vitro. Particulars: mouse, liver microsomes, t (1 / 2).
For another data set, the system named is Trypanosoma brucei. The data set can be described thus: DNDI: Inhibition of Human African Trypanosomiasis, SBRI 427, in vitro. Particulars: Trypanosoma brucei, SBRI 427; read-out: IC50. It is filed as functional, organism-based.
The conditions of data set [1]: mouse, microsomes, 1 µM.
Description: DNDI: in vitro intrinsic clearance in mouse liver microsomes at a concentration of 1uM
Data set [2] is described as follows: DNDI: Cytotoxicity against L929 mouse fibroblasts, 72 hour. It is filed as toxicity, cell-based. Particulars: mouse, L929 mouse fibroblasts.
Data set [3] is described as follows: DNDI: Cytotoxicity against L929 mouse fibroblasts, CYTO-SP, 24 hour. It is filed as toxicity, cell-based. Particulars: mouse, L929 mouse fibroblasts.

Description for in vitro: DNDI: half life in mouse liver microsomes at a concentration of 1uM

Turning to `Cc1ccc(Cc2ccccc2/C(=N/O)NC2CCCCC2)cc1`, in the data set “in vitro”, the half-life (in general, how long it takes for the measured level to halve) at 1 µM is 3 min. The IC50 (commonly the point on the concentration scale where inhibition reaches its midpoint) in the data set with Trypanosoma brucei was found to be 1.17 µg/mL (≈ 3.63 µM). In data set [1], the CLint in vitro turned out to be 318 µL/min/mg. Further, inhibition in data set [2] was half-maximal at 3.48 µg/mL (≈ 10.8 µM) (IC50 at 72 h).
On the same counts, the results for `CCOCCCNC(c1nc(-c2ccccc2)c(N2CCCCC2)o1)C(C)CC` (stereo unspecified) are 3 min, 2.72 µg/mL (≈ 6.81 µM), 255 µL/min/mg and 4.44 µg/mL (≈ 11.1 µM).
On the same counts, the results for `CCCCc1ccc(-c2nc(CNCC)co2)cc1` are 11 min, 0.89 µg/mL (≈ 3.44 µM), 76 µL/min/mg and 5.42 µg/mL (≈ 21 µM).
On the same counts, the results for `CCCCCC(C)NCc1coc(-c2ccc(OCCOCC)cc2)n1` (stereo unspecified) are 20 min, 1.57 µg/mL (≈ 4.36 µM), 42 µL/min/mg and 5.78 µg/mL (≈ 16 µM).
As to `CCC(C)C(NCc1ccco1)c1nc(-c2ccccc2)c(N2CCCCC2)o1` (stereo unspecified), the half-life at 1 µM in “in vitro” was determined as 4 min. Moreover, in the data set on Trypanosoma brucei, the IC50 was determined as 4.9 µg/mL (≈ 12.5 µM). The same compound showed a CLint in vitro in data set [1] of 206 µL/min/mg. In data set [2], this compound yielded an IC50 at 72 h of over 10 µg/mL.
For `C[C@@H]1[C@H]2C[C@@H](C[C@H]1NCc1coc(-c3sccc3Cl)n1)C2(C)C`, the 50% inhibitory concentration (IC50) with Trypanosoma brucei was over 5 µg/mL. In addition, the IC50 at 24 h in data set [3] was over 50 µg/mL. In addition, the IC50 at 72 h in data set [2] was over 50 µg/mL.
`O/N=C(/NC1CCCCC1)c1cccnc1Oc1ccc(F)cc1`: in “in vitro”, the half-life at 1 µM came to 2 min. Also, the IC50 in the data set with Trypanosoma brucei was found to be 1.4 µg/mL (≈ 4.25 µM). In data set [1], this compound came in with a CLint in vitro of 389 µL/min/mg. In addition, in data set [2], the IC50 at 72 h was over 10 µg/mL.
On to `Clc1ccsc1-c1nc(CNC2CCCCCC2)co1`, for which the IC50 with Trypanosoma brucei was over 5 µg/mL. This compound also displayed an IC50 at 24 h in data set [3] of over 50 µg/mL. In addition, in data set [2], half-maximal inhibition (IC50 at 72 h) required 11.8 µg/mL (≈ 38.1 µM).
The compound `c1cc(-c2nc(CNC3CCCCCC3)co2)ccc1OC1CCCCC1` gave a half-life at 1 µM in “in vitro” of 78 min. The concentration for half-maximal inhibition (IC50) in the data set with Trypanosoma brucei was found to be 0.43 µg/mL (≈ 1.17 µM). Further, the CLint in vitro in data set [1] amounted to 11 µL/min/mg. This compound displayed an IC50 at 72 h in data set [2] of 1.29 µg/mL (≈ 3.5 µM).
On the same counts, the results for `O/N=C(/NC1CCCCC1)c1cccnc1Oc1ccc(Cl)cc1` are 2 min, 0.93 µg/mL (≈ 2.69 µM), 367 µL/min/mg and over 10 µg/mL.
For the compound `COc1ccccc1CNC(CCc1ccccc1)c1nc(-c2ccccc2)c(N2CCOCC2)o1` (stereo unspecified), in the data set “in vitro”, the half-life at 1 µM turned out to be 2 min. In addition, the IC50 in the data set on Trypanosoma brucei was 4.15 µg/mL (≈ 8.58 µM). For the same compound, in data set [1], the CLint in vitro was determined as 344 µL/min/mg. For the same compound, the IC50 at 72 h in data set [2] was over 10 µg/mL.
On the same counts, the results for `CCCCCC(C)NCc1coc(-c2cccc(Oc3ccccc3)c2)n1` (stereo unspecified) are 63 min, 1.14 µg/mL (≈ 3.13 µM), 14 µL/min/mg and 1.76 µg/mL (≈ 4.83 µM).
`O/N=C(\NC1CCCCC1)c1ccccc1Cc1ccccc1` yielded a half-life at 1 µM in the data set “in vitro” of 2 min. The IC50 in the data set on Trypanosoma brucei turned out to be 1.19 µg/mL (≈ 3.86 µM). Besides, the CLint in vitro in data set [1] amounted to 381 µL/min/mg. The midpoint of inhibition in data set [2], the IC50 at 72 h, lay at 4.57 µg/mL (≈ 14.8 µM).
For the compound `CCCCc1ccc(-c2nc(CNCc3cccnc3)co2)cc1`, the half-life at 1 µM in “in vitro” came to 19 min. Moreover, in the data set on Trypanosoma brucei, the half-inhibitory concentration (IC50) was over 5 µg/mL. Besides, in data set [1], the CLint in vitro was 44 µL/min/mg. In data set [2], this compound registered an IC50 at 72 h of over 10 µg/mL.
In “in vitro”, `CCCCc1ccc(-c2nc(CN3CCOCC3)co2)cc1` displayed a half-life at 1 µM of 2 min. Further, in the data set on Trypanosoma brucei, the IC50 is over 5 µg/mL. The compound further yielded a CLint in vitro in data set [1] of 348 µL/min/mg. Further, in data set [2], the IC50 at 72 h is over 10 µg/mL.
On the same counts, the results for `CCCCCC(C)NCc1coc(-c2ccc(C3CCCCC3)cc2)n1` (stereo unspecified) are 232 min, 0.22 µg/mL (≈ 0.621 µM), 4 µL/min/mg and 0.67 µg/mL (≈ 1.89 µM).
On the same counts, the results for `CCCCCC(C)NCc1coc(-c2ccc(Oc3ccc(OC)cc3)cc2)n1` (stereo unspecified) are 34 min, 1.29 µg/mL (≈ 3.27 µM), 25 µL/min/mg and 5.61 µg/mL (≈ 14.2 µM).
On to `CCCCCC(C)NCc1coc(-c2ccc(OC3CCC3)cc2)n1` (stereo unspecified), for which, in “in vitro”, the half-life at 1 µM was 98 min. Besides, the concentration for half-maximal inhibition (IC50) in the data set on Trypanosoma brucei stood at 0.88 µg/mL (≈ 2.57 µM). Besides, the CLint in vitro in data set [1] was 9 µL/min/mg. For the same compound, in data set [2], the IC50 at 72 h worked out at 2.36 µg/mL (≈ 6.89 µM).
`COc1ccc(/C(=N/O)Nc2cccc(-c3ccccc3)c2)cc1`: in the data set “in vitro”, the half-life at 1 µM is 13 min. In data set [1], this compound had a CLint in vitro of 66 µL/min/mg. This compound came in with an IC50 at 72 h in data set [2] of over 10 µg/mL.
Take `Cc1cccc(CNC(c2ccccc2)c2nc(Cc3ccccc3)c(N3CCOCC3)o2)c1` (stereo unspecified): the half-life at 1 µM in the data set “in vitro” was determined as 4 min. Also, the IC50 in the data set on Trypanosoma brucei stood at 5 µg/mL (≈ 11 µM). In data set [1], this compound yielded a CLint in vitro of 217 µL/min/mg. In addition, the IC50 at 72 h in data set [2] was over 10 µg/mL.
Consider `CCCCCC(C)NCc1coc(-c2ccc(Oc3ccc(Cl)cc3)cc2)n1` (stereo unspecified), for which the half-life at 1 µM in the data set “in vitro” was found to be 313 min. In the data set on Trypanosoma brucei, the IC50 worked out at 0.34 µg/mL (≈ 0.852 µM). For the same compound, the CLint in vitro in data set [1] stood at 3 µL/min/mg. Moreover, the IC50 at 72 h in data set [2] turned out to be 2.07 µg/mL (≈ 5.19 µM).
